Seven compounds from patent US20230057891A1, “EGFR INHIBITORS” (Hoffmann-La Roche Inc., priority 2019, published 2023) can be followed below.

In this experiment the target is T1, EGFR TMLRCS (T790M/L858R/C797S) (Homo sapiens, UniProt P00533, C797S/L858R/T790M).
T1 construct: host or cells: BaF3-TMLRCS cell line
Description: HTRF Phospho EGFR TMLRCS assay (cellular), BaF3-TMLRCS cells. In kind it is cell-based. The following applies: BaF3-TMLRCS cell line, 4 hours incubation. On the procedure:
HTRF Phospho EGFR TMLRCS Assay (Cellular)
BaF3-TMLRCS cell line were obtained from Crownbio (San Diego, Calif., USA). Cells were maintained at 37° C., 5% CO2 in RPMI ATCC (Gibco 31870)+2 mM Glutamine+0.5 μg/ml Puromycin supplemented with 10% fetal bovine serum (FBS) (Gibco).
Cells are transferred as above to Greiner Bio-One, Nr. 784-08 micro-titerplate at 20000 cells/well in 12.5 μl of growth medium/well after the plates had been pre-filled with 12.5 nl of DMSO solutions of the to be tested compound (in dose response) or DMSO only. After spinning the plates at 300×g for 30 seconds the cells were incubated for 4 hours at 37 C, 5% CO2, 95% humidity. The cells were lysed by adding to the compound mix 4 µl/well of the supplemented lysis buffer (Cis-bio, Phospho-EGFR HTRF kit, 64EG1PEH), followed by incubation for 30 min at room temperature with shaking (400 rpm). The plates were then frozen and stored overnight at −80 C. On the next day and after thawing the plates, 4 μl of a mixture of anti-Phospho-EGFR Cryptate and of anti-Phospho-EGFR-d2 antibody solutions prepared in the supplied detection buffer was added to each well. The lidded plates were then incubated for 4 h at room temperature before reading the fluorescence emission at 616 and 665 nm using an Envision reader (Perkin Elmer). Data was analyzed in similar fashion as above using the normalized ratio of the 665 to 616 signals multiplied by 10000.
(In general: Time-resolved FRET reads energy transfer from a long-lived donor to a nearby acceptor.)

Each structure is given as a SMILES string.

T1 sequence (P00533 25-1210 T790M/C797S/L858R): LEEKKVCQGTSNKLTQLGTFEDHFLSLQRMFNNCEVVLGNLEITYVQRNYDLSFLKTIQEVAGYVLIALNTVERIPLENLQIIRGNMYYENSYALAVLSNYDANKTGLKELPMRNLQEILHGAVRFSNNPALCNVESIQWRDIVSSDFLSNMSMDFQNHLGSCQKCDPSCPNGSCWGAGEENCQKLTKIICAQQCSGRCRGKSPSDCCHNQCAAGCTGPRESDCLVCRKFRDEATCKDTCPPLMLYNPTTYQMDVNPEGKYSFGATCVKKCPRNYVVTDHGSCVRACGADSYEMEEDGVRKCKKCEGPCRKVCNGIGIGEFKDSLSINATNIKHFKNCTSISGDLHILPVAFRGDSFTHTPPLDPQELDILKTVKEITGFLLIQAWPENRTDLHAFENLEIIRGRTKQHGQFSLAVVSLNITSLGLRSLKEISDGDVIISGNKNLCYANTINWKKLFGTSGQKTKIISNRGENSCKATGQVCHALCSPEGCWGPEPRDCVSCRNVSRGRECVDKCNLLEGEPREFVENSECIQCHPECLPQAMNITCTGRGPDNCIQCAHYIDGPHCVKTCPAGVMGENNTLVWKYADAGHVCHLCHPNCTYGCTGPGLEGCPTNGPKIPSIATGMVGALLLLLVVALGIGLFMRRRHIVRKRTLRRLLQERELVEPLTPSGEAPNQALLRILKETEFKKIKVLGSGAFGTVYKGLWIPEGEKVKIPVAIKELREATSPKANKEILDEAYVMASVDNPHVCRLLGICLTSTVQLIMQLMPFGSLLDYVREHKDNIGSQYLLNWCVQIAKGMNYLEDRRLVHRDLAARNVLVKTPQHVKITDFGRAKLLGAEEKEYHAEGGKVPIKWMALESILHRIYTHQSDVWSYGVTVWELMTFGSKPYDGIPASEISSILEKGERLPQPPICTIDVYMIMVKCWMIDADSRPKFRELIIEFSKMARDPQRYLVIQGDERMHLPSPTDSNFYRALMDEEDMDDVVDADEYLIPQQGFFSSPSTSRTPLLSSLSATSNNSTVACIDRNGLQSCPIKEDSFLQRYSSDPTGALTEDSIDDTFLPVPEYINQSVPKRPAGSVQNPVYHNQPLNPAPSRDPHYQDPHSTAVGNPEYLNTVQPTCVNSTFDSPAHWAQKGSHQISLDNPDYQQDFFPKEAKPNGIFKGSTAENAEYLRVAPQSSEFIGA

By IC50 is commonly meant the concentration that inhibits the measured activity by half. A lower IC50 goes with greater potency in that assay. For `O=C(Nc1nccs1)C(c1ncn2c1CCC2)N1Cc2c(Cl)cc(-c3ccc(C45CC(CN6CCC(CO)CC6)(C4)C5)cc3)cc2C1=O` (racemic) [Example 1, (2RS)-2-(6,7-Dihydro-5H-pyrrolo[1,2-c]imidazol-1-yl)-2-[4-chloro-6-[4-[3-[[4-(hydroxymethyl)-1-piperidyl]methyl]-1-bicyclo[1.1.1]pentanyl]phenyl]-1-oxo-isoindolin-2-yl]-N-thiazol-2-yl-acetamide], half-maximal inhibition (IC50) was put at 9 nM.
Regarding `O=C(Nc1nccs1)C(c1ncn2c1CCC2)N1Cc2c(F)cc(-c3ccc(C45CC(CN6CCC(CO)CC6)(C4)C5)cc3)cc2C1=O` (racemic) [Example 2, (2RS)-2-(6,7-Dihydro-5H-pyrrolo[1,2-c]imidazol-1-yl)-2-[4-fluoro-6-[4-[3-[[4-(hydroxymethyl)-1-piperidyl]methyl]-1-bicyclo[1.1.1]pentanyl]phenyl]-1-oxo-isoindolin-2-yl]-N-thiazol-2-yl-acetamide], the IC50 was 4 nM.
Compound `CN(C)CC12CC(c3ccc(-c4cc(F)c5c(c4)C(=O)N(C(C(=O)Nc4nccs4)c4ncn6c4CCC6)C5)cc3)(C1)C2` (racemic) [Example 3, (2RS)-2-(6,7-Dihydro-5H-pyrrolo[1,2-c]imidazol-1-yl)-2-[6-[4-[3-[(dimethylamino)methyl]-1-bicyclo[1.1.1]pentanyl]phenyl]-4-fluoro-1-oxo-isoindolin-2-yl]-N-thiazol-2-yl-acetamide] returned a 50% inhibitory concentration (IC50) of 10 nM.
`O=C(Nc1nccs1)C(c1ncn2c1CCC2)N1Cc2c(F)cc(-c3ccc(C45CC(CN6CCC(O)CC6)(C4)C5)cc3)cc2C1=O` (racemic) [Example 4, (2RS)-2-(6,7-Dihydro-5H-pyrrolo[1,2-c]imidazol-1-yl)-2-[4-fluoro-6-[4-[3-[(4-hydroxy-1-piperidyl)methyl]-1-bicyclo[1.1.1]pentanyl]phenyl]-1-oxo-isoindolin-2-yl]-N-thiazol-2-yl-acetamide] registered an IC50 of 13 nM.
As to `O=C(Nc1nccs1)C(c1ncn2c1CCC2)N1Cc2c(F)cc(-c3ccc(C45CC(CN6CCCC6)(C4)C5)cc3)cc2C1=O` (racemic) [Example 5, (2RS)-2-(6,7-Dihydro-5H-pyrrolo[1,2-c]imidazol-1-yl)-2-[4-fluoro-1-oxo-6-[4-[3-(pyrrolidin-1-ylmethyl)-1-bicyclo[1.1.1]pentanyl]phenyl]isoindolin-2-yl]-N-thiazol-2-yl-acetamide], the IC50 turned out to be 13 nM.
`O=C(Nc1nccs1)C(c1ncn2c1CCC2)N1Cc2c(F)cc(-c3ccc(C45CC(CN6CCCC(O)CC6)(C4)C5)cc3)cc2C1=O` (racemic) [Example 6, (2RS)-2-(6,7-Dihydro-5H-pyrrolo[1,2-c]imidazol-1-yl)-2-[4-fluoro-6-[4-[3-[[(4RS)-4-hydroxyazepan-1-yl]methyl]-1-bicyclo[1.1.1]pentanyl]phenyl]-1-oxo-isoindolin-2-yl]-N-thiazol-2-yl-acetamide] came in with an IC50 of 8 nM.
As for `O=C(Nc1nccs1)C(c1ncn2c1CCC2)N1Cc2c(F)cc(-c3ccc(C45CC(CN6CCC(CO)CC6)(C4)C5)cc3)c(F)c2C1=O` (racemic) [Example 7, (2RS)-2-[4,7-Difluoro-6-[4-[3-[[4-(hydroxymethyl)-1-piperidyl]methyl]-1-bicyclo[1.1.1]pentanyl]phenyl]-1-oxo-isoindolin-2-yl]-2-(6,7-dihydro-5H-pyrrolo[1,2-c]imidazol-1-yl)-N-thiazol-2-yl-acetamide], the midpoint of inhibition, the IC50, lay at 4 nM.
